What was measured:
GSPT1 protein = GSPT1 protein (Homo sapiens (Human), UniProt P15170+Q96SW2); assay: Western-blot assay of substrate protein degradation in hPBMC, GSPT1; type: cell-based; details: hPBMC cells, compound 500 nM, 24 hours, Western blot
CCRF-CEM cells = assay: Tumor cell proliferation IC50 (CCK-8), CCRF-CEM; details: Homo sapiens, 96 h, read-out: IC50 for inhibiting the proliferation of tumor cells, CCRF-CEM;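 further: cell viability measured with CCK-8 reagent after compound treatment, IC50 taken from plotted growth inhibition curves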
Procedure: (§1) The tumor cells used herein were cultured in a cell culture medium listed in table A at 37° C. in an incubator with 5% CO2.
(§2) After the cells were treated with the compounds of the present disclosure for a period of time, the cell viability detection reagent was added to the culture medium for cell viability assessment according to the instructions provided with the CCK-8 kit. […] The growth inhibition of the compounds of the present disclosure on cells was plotted by Prism Graphpad software, and the IC50 values of the compounds of the present disclosure were calculated therefrom.

MDA-MB-231 cells = assay: Tumor cell proliferation IC50 (CCK-8), MDA-MB-231; details: Homo sapiens, MDA-MB-231, 96 h, read-out: IC50 for inhibiting the proliferation of tumor cells, MDA-MB-231
Procedure: (§3) Prior to experimentation, all cells used were correctly identified by STR profiling, and tested negative for mycoplasma through routine screenings.
as §2

IKZF1 protein = IKZF1 protein (Homo sapiens (Human), UniProt Q13422+Q96SW2); assay: Western-blot assay of substrate protein degradation in hPBMC, IKZF1; type: cell-based; details: hPBMC cells, compound 500 nM, 24 hours, Western blot
Chain of IKZF1 protein (Q13422 whole entry): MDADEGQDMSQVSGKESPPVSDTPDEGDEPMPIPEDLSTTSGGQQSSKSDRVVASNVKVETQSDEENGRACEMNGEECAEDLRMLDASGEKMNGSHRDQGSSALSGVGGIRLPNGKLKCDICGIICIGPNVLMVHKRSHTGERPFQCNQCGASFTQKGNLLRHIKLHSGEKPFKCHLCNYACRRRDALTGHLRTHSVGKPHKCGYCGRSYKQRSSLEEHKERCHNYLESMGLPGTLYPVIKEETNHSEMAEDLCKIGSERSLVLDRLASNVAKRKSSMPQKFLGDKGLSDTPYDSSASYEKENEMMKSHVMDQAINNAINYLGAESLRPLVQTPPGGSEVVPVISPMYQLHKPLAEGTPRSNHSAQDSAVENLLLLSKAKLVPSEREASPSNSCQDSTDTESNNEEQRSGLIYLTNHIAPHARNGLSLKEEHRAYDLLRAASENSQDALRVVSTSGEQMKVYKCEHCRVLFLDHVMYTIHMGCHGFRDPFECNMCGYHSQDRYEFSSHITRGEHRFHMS
Chain of IKZF1 protein (Q96SW2 whole entry): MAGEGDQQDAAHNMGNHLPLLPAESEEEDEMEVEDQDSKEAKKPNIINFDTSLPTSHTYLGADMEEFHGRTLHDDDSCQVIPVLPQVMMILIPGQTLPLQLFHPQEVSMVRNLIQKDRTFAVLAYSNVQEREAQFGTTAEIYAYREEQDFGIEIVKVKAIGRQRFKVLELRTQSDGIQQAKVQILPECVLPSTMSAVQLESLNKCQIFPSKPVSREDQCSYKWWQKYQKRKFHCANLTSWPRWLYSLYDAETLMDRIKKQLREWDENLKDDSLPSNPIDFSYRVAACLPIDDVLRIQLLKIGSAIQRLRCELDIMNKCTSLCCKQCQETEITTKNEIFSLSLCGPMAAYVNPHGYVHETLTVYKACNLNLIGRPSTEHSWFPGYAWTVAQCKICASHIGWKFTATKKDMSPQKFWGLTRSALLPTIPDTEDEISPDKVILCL
Chain of IKZF1 protein (Q16531 whole entry partner): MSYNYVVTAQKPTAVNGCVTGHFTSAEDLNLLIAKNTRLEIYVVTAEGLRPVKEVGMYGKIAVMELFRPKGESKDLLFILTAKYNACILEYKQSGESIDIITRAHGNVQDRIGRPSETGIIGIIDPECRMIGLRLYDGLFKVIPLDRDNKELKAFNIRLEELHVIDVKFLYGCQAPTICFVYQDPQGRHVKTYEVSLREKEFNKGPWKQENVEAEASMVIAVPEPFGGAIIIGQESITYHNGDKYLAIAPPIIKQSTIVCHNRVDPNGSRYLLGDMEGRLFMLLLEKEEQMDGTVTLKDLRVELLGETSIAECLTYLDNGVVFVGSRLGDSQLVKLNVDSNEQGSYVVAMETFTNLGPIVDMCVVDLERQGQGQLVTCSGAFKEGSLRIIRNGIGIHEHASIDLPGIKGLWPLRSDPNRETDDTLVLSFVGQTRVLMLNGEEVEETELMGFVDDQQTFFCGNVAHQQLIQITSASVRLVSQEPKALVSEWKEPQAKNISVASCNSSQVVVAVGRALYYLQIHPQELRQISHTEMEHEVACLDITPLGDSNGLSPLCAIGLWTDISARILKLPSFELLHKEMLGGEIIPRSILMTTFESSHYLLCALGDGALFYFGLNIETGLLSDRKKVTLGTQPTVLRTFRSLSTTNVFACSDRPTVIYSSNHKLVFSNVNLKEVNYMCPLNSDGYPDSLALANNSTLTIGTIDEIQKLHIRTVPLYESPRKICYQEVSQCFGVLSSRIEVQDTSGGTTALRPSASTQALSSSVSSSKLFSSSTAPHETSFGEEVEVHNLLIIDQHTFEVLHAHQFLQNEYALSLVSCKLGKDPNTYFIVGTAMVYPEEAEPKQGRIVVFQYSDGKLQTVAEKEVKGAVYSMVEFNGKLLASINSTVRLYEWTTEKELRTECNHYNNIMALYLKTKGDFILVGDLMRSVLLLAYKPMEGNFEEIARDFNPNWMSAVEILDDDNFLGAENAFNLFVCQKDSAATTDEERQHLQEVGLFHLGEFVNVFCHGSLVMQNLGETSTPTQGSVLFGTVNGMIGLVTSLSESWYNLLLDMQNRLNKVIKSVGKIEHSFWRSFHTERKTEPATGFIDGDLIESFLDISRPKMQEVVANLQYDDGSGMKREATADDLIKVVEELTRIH

[1] = biological target: human Cereblon WT GST-tagged protein (Homo sapiens (Human), UniProt Q96SW2); assay: CRBN-binding affinity, HTRF (CEREBLON BINDING kit)
Chain of human Cereblon WT GST-tagged protein (Q96SW2 whole entry): as the sequence (Q96SW2 whole entry) above
How it was run: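 GST-tagged human WT Cereblon incubated with compound, then Thalidomide-Re tracer and anti-GST Eu antibody added. Displacement read by HTRF, reported as CRBN binding inhibition rate against blank control wells without protein.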

Mino cells = assay: Tumor cell proliferation IC50 (CCK-8), Mino; details: Homo sapiens, 72 h, read-out: IC50 for inhibiting the proliferation of tumor cells, Mino;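 further: cell viability assessed with CCK-8 reagent after compound exposure, IC50 derived from plotted growth inhibition curves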
[2] = Pharmacokinetic study, oral administration, mouse plasma; type: in vivo, mice
Procedure: The experimental animals used can be those commonly used in pharmacokinetic experiments, e.g., adult and healthy rodents (e.g., mice, rats (such as Sprague-Dawley (SD) rats), guinea pigs) or non-rodents (rabbits, dogs, and monkeys). In the present disclosure, mice were used as the experimental animals.
The experimental animals were divided into two groups: a control group (for collecting blank plasma) and an orally administered group (dosed at 10 mg/kg or 30 mg/kg). Blood samples were collected at predetermined sampling time points after administration, such as 0.25 h, 0.5 h, 1 h, 2 h, 4 h, 8 h, and 24 h post-dosing. Blank plasma was collected from the control group.
Plasma samples were preprocessed before analysis: 10 μL of 50% acetonitrile and 200 μL of internal standard solution (containing 50 ng/mL dexamethasone in acetonitrile) were added to 10 μL of plasma samples. For the blank control group, the same volume of acetonitrile was added instead of the internal standard. The processed samples were vortexed, centrifuged, and the supernatant was taken for LC-MS/MS injection analysis.
After preparing standard curves and quality control (QC) samples, the concentrations of the compounds in the plasma samples were determined by LC-MS/MS analysis. Based on the plasma concentration data obtained from LC-MS/MS analysis, the pharmacokinetic parameters of the test compounds were calculated using the non-compartmental model in the pharmacokinetic calculation software WinNonlin v8.1.

MM.1S cells = assay: Tumor cell proliferation IC50 (CCK-8), MM.1S; details: Homo sapiens, MM1.S, 72 h, read-out: IC50 for inhibiting the proliferation of tumor cells, MM.1S;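 further: viability of cultured cells read by CCK-8 reagent after compound exposure, growth inhibition curves fitted to derive IC50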
Procedure: as §1, §2

Ramos cells = assay: Tumor cell proliferation IC50 (CCK-8), Ramos; details: Homo sapiens, 72 h, read-out: IC50 for inhibiting the proliferation of tumor cells, Ramos
Procedure: as §1, §2

IKZF3 protein = IKZF3 protein (Homo sapiens (Human), UniProt Q96SW2+Q9UKT9); assay: Western-blot assay of substrate protein degradation in hPBMC, IKZF3; type: cell-based; details: hPBMC cells, compound 500 nM, 24 hours, Western blot
Chain of IKZF3 protein (Q9UKT9 whole entry): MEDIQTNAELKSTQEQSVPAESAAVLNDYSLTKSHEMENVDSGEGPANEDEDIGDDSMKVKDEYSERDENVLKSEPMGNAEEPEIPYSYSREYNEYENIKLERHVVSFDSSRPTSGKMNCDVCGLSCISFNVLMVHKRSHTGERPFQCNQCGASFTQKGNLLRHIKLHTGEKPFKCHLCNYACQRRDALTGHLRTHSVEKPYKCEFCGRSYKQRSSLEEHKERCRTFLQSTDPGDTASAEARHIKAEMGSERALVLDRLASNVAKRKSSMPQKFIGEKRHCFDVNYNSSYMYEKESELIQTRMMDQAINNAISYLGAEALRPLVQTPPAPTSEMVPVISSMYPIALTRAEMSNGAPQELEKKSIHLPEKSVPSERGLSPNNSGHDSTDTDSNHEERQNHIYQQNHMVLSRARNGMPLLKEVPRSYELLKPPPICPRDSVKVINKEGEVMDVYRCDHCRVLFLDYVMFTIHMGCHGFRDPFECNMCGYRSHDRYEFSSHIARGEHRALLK
Chain of IKZF3 protein (Q96SW2 whole entry): as the sequence (Q96SW2 whole entry) above
Chain of IKZF3 protein (Q16531 whole entry partner): as the sequence (Q16531 whole entry partner) above

SW620 cells = assay: Tumor cell proliferation IC50 (CCK-8), SW620; details: Homo sapiens, SW-620, 96 h, read-out: IC50 for inhibiting the proliferation of tumor cells, SW620
Procedure: as §1, §2

MM.1R cells = assay: Tumor cell proliferation IC50 (CCK-8), MM.1R; details: Homo sapiens, 72 h, read-out: IC50 for inhibiting the proliferation of tumor cells, MM.1R
Procedure: as §1, §2

Kasumi-1 cells = assay: Tumor cell proliferation IC50 (CCK-8), Kasumi-1; details: Homo sapiens, Kasumi 1, 72 h, read-out: IC50 for inhibiting the proliferation of tumor cells, Kasumi-1
Procedure: as §1, §2

SU-DHL-4 cells = assay: Tumor cell proliferation IC50 (CCK-8), SU-DHL-4; details: Homo sapiens, SU-DHL-4, 72 h, read-out: IC50 for inhibiting the proliferation of tumor cells, SU-DHL-4
Procedure: as §3, §2

TMD8 cells = assay: Tumor cell proliferation IC50 (CCK-8), TMD8; details: Homo sapiens, TMD8, 72 h, read-out: IC50 for inhibiting the proliferation of tumor cells, TMD8
Procedure: as §1, §2

SU-DHL-6 cells = assay: Tumor cell proliferation IC50 (CCK-8), SU-DHL-6; details: Homo sapiens, SU-DHL-6, 72 h, read-out: IC50 for inhibiting the proliferation of tumor cells, SU-DHL-6
Procedure: as §3, §2

MV-4-11 cells = assay: Tumor cell proliferation IC50 (CCK-8), MV-4-11; details: Homo sapiens, MV4-11, 96 h, read-out: IC50 for inhibiting the proliferation of tumor cells, MV-4-11
Procedure: as §1, §2

Daudi cells = assay: Tumor cell proliferation IC50 (CCK-8), Daudi; details: Homo sapiens, read-out: IC50 for inhibiting the proliferation of tumor cells, Daudi;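 further: cell viability read with CCK-8 reagent after compound exposure of Daudi cells, IC50 derived from plotted growth inhibition curves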
Procedure: as §1, §2

Chain of GSPT1 protein (P15170 whole entry): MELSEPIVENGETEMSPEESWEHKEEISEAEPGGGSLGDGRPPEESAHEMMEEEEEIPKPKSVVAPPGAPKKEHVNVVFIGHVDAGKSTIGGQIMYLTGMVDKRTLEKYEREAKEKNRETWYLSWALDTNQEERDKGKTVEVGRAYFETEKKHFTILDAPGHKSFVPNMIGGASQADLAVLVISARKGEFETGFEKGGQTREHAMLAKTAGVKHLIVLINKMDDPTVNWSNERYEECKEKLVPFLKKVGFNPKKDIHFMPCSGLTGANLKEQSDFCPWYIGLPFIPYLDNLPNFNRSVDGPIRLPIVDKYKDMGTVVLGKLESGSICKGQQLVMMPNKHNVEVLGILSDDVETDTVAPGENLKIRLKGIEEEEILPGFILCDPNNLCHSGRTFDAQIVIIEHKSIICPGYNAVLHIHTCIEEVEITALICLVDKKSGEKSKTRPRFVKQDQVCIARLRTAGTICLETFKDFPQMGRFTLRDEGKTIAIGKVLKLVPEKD
Chain of GSPT1 protein (Q96SW2 whole entry): as the sequence (Q96SW2 whole entry) above
Chain of GSPT1 protein (Q16531 whole entry partner): as the sequence (Q16531 whole entry partner) above

Structure (SMILES)	residual substrate protein level, GSPT1 (GSPT1 protein)	IC50 (CCRF-CEM cells) [nM]	IC50 (MDA-MB-231 cells) [nM]	residual substrate protein level, IKZF1 (IKZF1 protein)	IC50 [1] [nM]	IC50 (Mino cells) [nM]	AUC(0-t) ([2]; p.o. 30 mg/kg) [ng·h/mL]	IC50 (MM.1S cells) [nM]	IC50 (Ramos cells) [nM]	residual substrate protein level, IKZF3 (IKZF3 protein)	IC50 (SW620 cells) [nM]	IC50 (MM.1R cells) [nM]	IC50 (Kasumi-1 cells) [nM]	IC50 (SU-DHL-4 cells) [nM]	IC50 (TMD8 cells) [nM]	IC50 (SU-DHL-6 cells) [nM]	IC50 (MV-4-11 cells) [nM]	IC50 (Daudi cells) [nM]	AUC(0-t) ([2]; p.o. 10 mg/kg) [ng·h/mL]
CC1(C)CCC(CN2CCN(Cc3ccc4c(c3F)CN(C3CCC(=O)NC3=O)C4=O)CC2)=C(c2ccc(Cl)cc2)C1 (stereo not shown) [GT-03468, 3-(5-((4-((4′-chloro-5,5-dimethyl-3,4,5,6-tetrahydro-[1,1′-biphenyl]-2-yl)methyl)piperazin-1-yl)methyl)-4-fluoro-1-oxoisoindolin-2-yl)piperidine-2,6-dione]	A (A represents a residual substrate protein level of <50%)	10 to 50	10 to 50	A (A represents a residual substrate protein level of <50%)	2960	100 to 500	> 500	10 to 50	100 to 500	A (A represents a residual substrate protein level of <50%)	10 to 50	10 to 50	10 to 50	5000 to 10000	100 to 500				
O=C1CCC(N2Cc3cc(CN4CCN(Cc5ccccc5-c5ccc(Cl)cc5)CC4)ccc3C2=O)C(=O)N1 (stereo not shown) [GT-03355, 3-(5-((4-((4′-chloro-[1,1′-biphenyl]-2-yl)methyl)piperazin-1-yl)methyl)-1-oxoisoindolin-2-yl)piperidine-2,6-dione]	A (A represents a residual substrate protein level of <50%)	< 5	< 5	A (A represents a residual substrate protein level of <50%)	770	< 5	> 500	< 5	5 to 10	A (A represents a residual substrate protein level of <50%)	5 to 10	< 5	< 5	100 to 500	< 5	10 to 50			
CC1(C)CCC(CN2CCN(Cc3ccc4c(c3)CN(C3CCC(=O)NC3=O)C4=O)CC2)=C(c2ccc(F)cc2)C1 (stereo not shown) [GT-03454, 3-(5-((4-((4′-fluoro-5,5-dimethyl-3,4,5,6-tetrahydro-[1,1′-biphenyl]-2-yl)methyl)piperazin-1-yl)methyl)-1-oxoisoindolin-2-yl)piperidine-2,6-dione]	A (A represents a residual substrate protein level of <50%)	10 to 50		A (A represents a residual substrate protein level of <50%)	410				1000 to 5000	A (A represents a residual substrate protein level of <50%)		100 to 500			1000 to 5000				
O=C1CCC(N2Cc3c(ccc(CN4CCN(Cc5ccccc5-c5ccc(Cl)cc5)CC4)c3F)C2=O)C(=O)N1 (stereo not shown) [GT-03694, 3-(5-((4-((4′-chloro-[1,1′-biphenyl]-2-yl)methyl)piperazin-1-yl)methyl)-4-fluoro-1-oxoisoindolin-2-yl)piperidine-2,6-dione]	A (A represents a residual substrate protein level of <50%)			A (A represents a residual substrate protein level of <50%)	540	5 to 10	> 500			A (A represents a residual substrate protein level of <50%)	< 5			100 to 500					
O=C1CCC(N2Cc3cc(CN4CCN(Cc5ccccc5-c5ccc(Cl)cc5)CC4)c(F)cc3C2=O)C(=O)N1 (stereo not shown) [GT-03695, 3-(5-((4-((4′-chloro-[1,1′-biphenyl]-2-yl)methyl)piperazin-1-yl)methyl)-6-fluoro-1-oxoisoindolin-2-yl)piperidine-2,6-dione]	A (A represents a residual substrate protein level of <50%)			A (A represents a residual substrate protein level of <50%)	1170	5 to 10	> 500			A (A represents a residual substrate protein level of <50%)	5 to 10			50 to 100					
O=C1CCC(N2Cc3cc(-c4ccc(CN5CCN(Cc6ccccc6-c6ccc(Cl)cc6)CC5)cc4)ccc3C2=O)C(=O)N1 (stereo not shown) [GT-03356, 3-(5-(4-((4-((4′-chloro-[1,1′-biphenyl]-2-yl)methyl)piperazin-1-yl)methyl)phenyl)-1-oxoisoindolin-2-yl)piperidine-2,6-dione]		1000 to 5000							5000 to 10000							100 to 500			
CC1(C)CCC(CN2CCN(Cc3ccc4c(c3)CN(C3CCC(=O)NC3=O)C4=O)CC2)=C(c2ccc(Cl)cc2)C1 (stereo not shown) [GT-02785, 3-(5-((4-((4′-chloro-5,5-dimethyl-3,4,5,6-tetrahydro-[1,1′-biphenyl]-2-yl)methyl)piperazin-1-yl)methyl)-1-oxoisoindolin-2-yl)piperidine-2,6-dione]	A (A represents a residual substrate protein level of <50%)	10 to 50	50 to 100	A (A represents a residual substrate protein level of <50%)	3070	5 to 10		< 5	100 to 500	A (A represents a residual substrate protein level of <50%)	50 to 100	10 to 50	50 to 100		100 to 500		24	159	> 500
CC1(C)CCC(CN2CCN(Cc3cc4c(cc3F)C(=O)N(C3CCC(=O)NC3=O)C4)CC2)=C(c2ccc(Cl)cc2)C1 (stereo not shown) [GT-03578, 3-(5-((4-((4′-chloro-5,5-dimethyl-3,4,5,6-tetrahydro-[1,1′-biphenyl]-2-yl)methyl)piperazin-1-yl)methyl)-6-fluoro-1-oxoisoindolin-2-yl)piperidine-2,6-dione]	A (A represents a residual substrate protein level of <50%)	< 5	< 5	A (A represents a residual substrate protein level of <50%)	1830		> 500	< 5	10 to 50	A (A represents a residual substrate protein level of <50%)		5 to 10	< 5	100 to 500	10 to 50	1000 to 5000			

From US20260028326A1, “COMPOUND BASED ON ISOINDOLINE-SUBSTITUTED GLUTARIMIDE BACKBONE AND USE THEREOF” (GLUETACS THERAPEUTICS (SHANGHAI) CO., LTD., priority 2022, published 2026)
